Laboratory results from patent EP0174833A2, “Triazoloquinoline derivatives” (MAY & BAKER LIMITED, priority 1984, dated 1986).

test system: mouse macrophage cells; experiment: reduction of the inhibition of migration of incubated macrophage cells after oral dosing (similar to Likhite et al.); type: in vivo; conditions: mice, twice administered orally, one hour before and four hours after antigen, dose each time that would reduce by 50% the inhibition of macrophage migration
Experimental: For example, from tests in mice it was calculated that compounds of formula I, when twice administered orally, one hour before and four hours after the administration of antigen, each time at the doses shown in the following Table I, would reduce by 50% the inhibition of migration of incubated mouse macrophage cells measured in a manner similar to that described by Likhite et al., Cellular Immunology, Vol. 5, 1972, page 377. This is a measure of antagonism or reduction of the levels of lymphokines and is indicative of utility in the treatment of arthritic patients.

| Structure (SMILES) | ED50 |
| --- | --- |
| CCOC(=O)C(=CNc1ccc2c(c1)c(C)cc1nnc(-c3ccc(OC)cc3)n12)C(=O)OCC [C, 7-[2,2-bis(ethoxycarbonyl)ethen-l-ylamino]-1-(4-methoxyphenyl)-5-methyl-1,2,4-triazolo-[4,3-a]quinoline] | < 10 mg/kg |
| CCOC(=O)C(=CNc1ccc2c(c1)c(C)cc1nnc(-c3ccccc3)n12)C(=O)OCC [A, 7-[2,2-bis(ethoxycarbonyl)ethen-l-ylamino]-5-methyl-1-phenyl-1,2,4-triazolo[4,3-a]quinoline] | 7 mg/kg |

test system: lipoxygenase; experiment: lipoxygenase inhibition in vitro; type: biochemical; conditions: concentration 0.0001M, 100 µM

| Structure (SMILES) | % inhibition of lipoxygenase |
| --- | --- |
| CCOC(=O)C(=CNc1ccc(-c2nnc3cc(C)c4ccccc4n23)cc1)C(=O)OCC [E, 1-[4-{2,2-bis(ethoxycarbonyl)ethen-1-yl-amino}phenyl]-5-methyl-1,2,4-triazolo[4,3-a]-quinoline] | 50% |
| CCOC(=O)C(=CNc1ccc2c(c1)c(C)cc1nnc(-c3ccc(C)cc3)n12)C(=O)OCC [B, 7-[2,2-bis(ethoxycarbonyl)ethen-l-ylamino]-5-methyl-l-(4-methylphenyl)-1,2,4-triazolo-[4,3-a]quinoline] | 100% |
| CCOC(=O)C(=CNc1ccc2c(c1)c(C)cc1nnc(-c3ccccc3)n12)C(=O)OCC [A, 7-[2,2-bis(ethoxycarbonyl)ethen-l-ylamino]-5-methyl-1-phenyl-1,2,4-triazolo[4,3-a]quinoline] | 100% |
| CCOC(=O)C(=CNc1ccc2c(c1)c(C)cc1nnc(-c3ccc(C(C)(C)C)cc3)n12)C(=O)OCC [D, 1-(4-tert-butylphenyl)-7-[2,2-bis(ethoxycarbonyl)ethen-1-ylamino)-5-methyl-1,2,4-triazolo[4,3-a]quinoline] | 98% |
